In the supplement of paper PMC10331698:
± gives the standard deviation of the averaged measurements.

Assays:
Test in all cases: level (log10 ratio to DMSO vehicle control); higher = higher biomarker level / cell amount than vehicle control
[1] = compound: CO[Si](C)(CCC(F)(F)C(F)(F)C(F)(F)C(F)(F)C(F)(F)C(F)(F)F)OC [Dimethoxymethyl((perfluorohexyl)ethyl)silane] (in DMSO)
Experimental: (§1)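 BioMAP Diversity Plus panel of 12 human primary cell co-culture systems (3C, 4H, LPS, SAg, BT, BF4T, BE3C, CASM3C, HDF3CGF, KF3CT, MyoF, Mphg). Compounds were added 1 h before stimulation and left for 24 h (MyoF 48 h; BT 72 h for soluble read-outs or 6 d for IgG). Biomarkers were read by ELISA, cytotoxicity by SRB, PBMC viability and proliferation by Alamar Blue. Each well value was divided by the mean of 8 DMSO control wells on the same plate and log10 transformed; duplicate blinded samples were tested at 4 concentrations.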

Perfluoroundecanoic acid = compound: O=C(O)C(F)(F)C(F)(F)C(F)(F)C(F)(F)C(F)(F)C(F)(F)C(F)(F)C(F)(F)C(F)(F)C(F)(F)F [Perfluoroundecanoic acid] (in DMSO); conditions: 6700 nM
Experimental: as §1

[2] = compound: CCOC(=O)CC(=O)C(F)(F)C(F)(F)F [Ethyl pentafluoropropionyl acetate] (in DMSO)
Experimental: as §1

[3] = compound: OCCC(F)(F)C(F)(F)C(F)(F)C(F)(F)F [4:2 Fluorotelomer alcohol] (in DMSO)
Experimental: as §1

[4] = compound: O=C(O)CCC(F)(C(F)(F)F)C(F)(F)F [4,4-bis(Trifluoromethyl)-4-fluoropropanoic acid] (in DMSO)
Experimental: as §1

[5] = compound: CN(C(=O)C(F)(F)C(F)(F)C(F)(F)F)[Si](C)(C)C [N-Methyl-N-trimethylsilylheptafluorobutyramide] (in DMSO)
Experimental: as §1

[6] = compound: O=C(O)C=C(C(F)(F)F)C(F)(F)F [3,3-Bis(trifluoromethyl)-2-propenoic acid] (in DMSO)
Experimental: as §1

Test System | level (log10) ([1]; 6700 nM) | level (log10) ([1]; 20000 nM) | level (log10) (Perfluoroundecanoic acid) | level (log10) ([2]; 6700 nM) | level (log10) ([2]; 20000 nM) | level (log10) ([2]; 60000 nM) | level (log10) ([3]; 6700 nM) | level (log10) ([3]; 20000 nM) | level (log10) ([3]; 60000 nM) | level (log10) ([4]; 6700 nM) | level (log10) ([4]; 20000 nM) | level (log10) ([4]; 60000 nM) | level (log10) ([5]; 6700 nM) | level (log10) ([5]; 20000 nM) | level (log10) ([5]; 60000 nM) | level (log10) ([6]; 6700 nM) | level (log10) ([6]; 20000 nM) | level (log10) ([6]; 60000 nM)
KF3CT:CCL2/MCP-1 | -0.0325 ± 0.0092 | 0.008 ± 0.059 | -0.075 ± 0.011 | -0.0355 ± 0.0064 | -0.045 ± 0.035 | 0.001 ± 0.071 | -0.001 ± 0.02 | -0.0675 ± 0.035 | 0.009 ± 0.048 | -0.011 ± 0.0057 | -0.0145 ± 0.03 | 0.0015 ± 0.0092 | -0.0175 ± 0.0092 | -0.0305 ± 0.021 | 0.0205 ± 0.056 | -0.0055 ± 0.036 | -0.015 ± 0.014 | -0.028 ± 0.052
KF3CT:CD54/ICAM-1 | -0.0135 ± 0.015 | 0.0145 ± 0.0078 | -0.019 ± 0.0028 | -0.003 ± 0.024 | 0.006 ± 0.014 | 0.0075 ± 0.03 | -0.0115 ± 0.0092 | 0.0015 ± 0.019 | -0.009 ± 0.0057 | 0.0055 ± 0.0078 | -0.0085 ± 0.0092 | 0.01 ± 0.0085 | -0.001 ± 0.0028 | -0.0045 ± 0.0092 | -0.0065 ± 0.013 | -0.007 ± 0.0057 | 0.008 ± 0.0071 | 0.022 ± 0.016
KF3CT:CXCL8/IL-8 | -0.016 ± 0.0014 | 0.0035 ± 0.019 | -0.0315 ± 0.037 | -0.012 ± 0.018 | -0.0155 ± 0.0021 | -0.0005 ± 0.029 | 0.0025 ± 0.0021 | 0.0185 ± 0.013 | 0.028 ± 0.017 | -0.023 ± 0.0028 | -0.0105 ± 0.00071 | -0.0115 ± 0.013 | 0.001 ± 0.013 | -0.0105 ± 0.00071 | 0.0115 ± 0.022 | -0.004 ± 0.0028 | 0.0025 ± 0.0092 | 0.0245 ± 0.016
KF3CT:CXCL9/MIG | -0.004 | -0.005 ± 0.0028 | 0.0135 ± 0.018 | 0.002 ± 0.0028 | 0.0015 ± 0.0078 | -0.0025 ± 0.0064 | -0.0055 ± 0.029 | -0.0115 ± 0.021 | -0.0115 ± 0.0035 | 0.01 ± 0.011 | 0.0005 ± 0.0078 | 0.006 ± 0.016 | -0.0035 ± 0.0092 | -0.0125 ± 0.0092 | 0.003 ± 0.0071 | 0.0015 ± 0.005 | -0.003 ± 0.0085 | 0.006 ± 0.011
KF3CT:CXCL10/IP-10 | -0.0155 ± 0.0064 | -0.008 ± 0.0028 | -0.054 ± 0.017 | -0.002 ± 0.013 | -0.009 ± 0.0057 | -0.009 ± 0.0071 | 0.009 ± 0.04 | -0.0005 ± 0.00071 | 0.019 ± 0.024 | -0.0055 ± 0.0021 | -0.0005 ± 0.00071 | -0.0005 ± 0.0064 | -0.0095 ± 0.026 | -0.011 ± 0.021 | -0.0085 ± 0.0021 | -0.01 ± 0.013 | -0.027 ± 0.0014 | -0.0225 ± 0.019
KF3CT:IL-1alpha | -0.032 ± 0.024 | -0.0065 ± 0.032 | -0.026 ± 0.011 | -0.021 ± 0.011 | -0.0345 ± 0.022 | -0.001 ± 0.031 | -0.0325 ± 0.018 | -0.056 ± 0.098 | -0.0665 ± 0.067 | -0.008 ± 0.021 | -0.0105 ± 0.0064 | -0.0345 ± 0.043 | -0.0155 ± 0.0021 | -0.017 ± 0.0099 | 0.008 ± 0.034 | -0.001 ± 0.0057 | -0.016 ± 0.016 | -0.0185 ± 0.032
KF3CT:MMP-9 | -0.008 ± 0.0014 | -0.0065 ± 0.016 | -0.172 ± 0.027 | -0.0165 ± 0.013 | -0.0005 ± 0.012 | -0.011 ± 0.0099 | -0.033 ± 0.011 | -0.0435 ± 0.028 | 0.002 ± 0.034 | -0.026 ± 0.025 | -0.0195 ± 0.019 | -0.008 ± 0.0085 | -0.0235 ± 0.005 | -0.0115 ± 0.033 | 0.0055 ± 0.00071 | -0.029 ± 0.025 | -0.031 ± 0.041 | -0.078 ± 0.028
KF3CT:PAI-I | 0.0045 ± 0.0064 | 0.009 ± 0.014 | -0.11 ± 0.013 | -0.02 ± 0.023 | -0.01 ± 0.035 | -0.0055 ± 0.026 | -0.0355 ± 0.012 | -0.073 ± 0.027 | 0.041 ± 0.035 | -0.0035 ± 0.00071 | -0.0165 ± 0.0092 | 0.003 ± 0.0071 | -0.02 ± 0.025 | -0.004 ± 0.014 | -0.0005 ± 0.0078 | 0.004 ± 0.013 | 0.002 ± 0.013 | -0.0055 ± 0.018
KF3CT:SRB | -0.0045 ± 0.0064 | -0.004 ± 0.0028 | -0.0105 ± 0.0021 | -0.002 | 0.0005 ± 0.0035 | -0.004 ± 0.0014 | -0.009 ± 0.0071 | -0.009 ± 0.013 | -0.0025 ± 0.00071 | -0.003 ± 0.0042 | 0.004 ± 0.0071 | 0.008 ± 0.0099 | -0.004 ± 0.0014 | -0.0095 ± 0.015 | -0.003 ± 0.013 | -0.0015 ± 0.0021 | 0.003 | 0.024 ± 0.0071
KF3CT:TIMP-2 | -0.004 ± 0.028 | 0.0035 ± 0.011 | 0.0125 ± 0.012 | 0.004 ± 0.011 | -0.0105 ± 0.0078 | 0.0175 ± 0.0035 | -0.0185 ± 0.14 | -0.0295 ± 0.074 | 0.004 ± 0.054 | -0.0315 ± 0.039 | -0.0015 ± 0.052 | -0.0125 ± 0.0035 | -0.0315 ± 0.011 | -0.0145 ± 0.0078 | 0.0095 ± 0.035 | 0.006 ± 0.048 | -0.016 ± 0.021 | 0.039 ± 0.052
KF3CT:uPA | 0.0015 ± 0.0092 | -0.015 ± 0.0028 | 0.0125 ± 0.018 | 0.01 ± 0.018 | 0.0095 ± 0.016 | -0.006 ± 0.023 | -0.0105 ± 0.039 | -0.0185 ± 0.0021 | 0.017 ± 0.027 | 0.001 ± 0.0071 | -0.0145 ± 0.028 | -0.004 ± 0.023 | -0.0045 ± 0.019 | 0.0135 ± 0.005 | 0.0115 ± 0.0078 | 0.027 ± 0.02 | 0.0275 ± 0.028 | 0.0325 ± 0.0021
MyoF:CD106/VCAM-1 | 0.003 ± 0.0042 | -0.008 ± 0.018 | -0.079 ± 0.018 | -0.0125 ± 0.012 | -0.012 ± 0.023 | -0.0105 ± 0.021 | -0.0275 ± 0.0078 | -0.024 ± 0.0042 | -0.0225 ± 0.064 | -0.0065 ± 0.0078 | -0.0095 ± 0.026 | -0.0045 ± 0.015 | -0.0125 ± 0.021 | -0.014 ± 0.024 | -0.017 ± 0.0085 | -0.0825 ± 0.00071 | -0.145 ± 0.0021 | -0.291 ± 0.04
MyoF:CXCL8/IL-8 | -0.016 ± 0.0014 | 0.0085 ± 0.036 | 0.0245 ± 0.0092 | -0.007 ± 0.018 | -0.0025 ± 0.021 | 0.0105 ± 0.029 | -0.039 | -0.0475 ± 0.0021 | 0.0435 ± 0.0078 | 0.0035 ± 0.0092 | 0.0085 ± 0.0078 | 0.009 ± 0.0099 | 0.0005 ± 0.025 | 0.003 ± 0.0042 | 0.009 ± 0.027 | 0.0915 ± 0.00071 | 0.107 ± 0.015 | 0.154 ± 0.016
MyoF:Collagen I | -0.0075 ± 0.0064 | 0.007 ± 0.0014 | -0.421 ± 0.0092 | -0.0085 ± 0.026 | -0.0155 ± 0.036 | -0.014 ± 0.041 | -0.031 ± 0.044 | -0.031 ± 0.041 | 0.01 ± 0.028 | -0.0045 ± 0.012 | -0.0065 ± 0.0092 | 0.008 ± 0.0028 | 0.0025 ± 0.019 | 0.007 ± 0.023 | 0.01 ± 0.0057 | -0.031 ± 0.0057 | -0.046 ± 0.021 | -0.055 ± 0.04
MyoF:Collagen III | 0.0175 ± 0.019 | -0.011 ± 0.011 | -0.3895 ± 0.00071 | -0.0045 ± 0.016 | -0.0045 ± 0.011 | -0.009 ± 0.0042 | -0.011 ± 0.038 | 0.007 ± 0.042 | 0.0245 ± 0.032 | -0.0045 ± 0.011 | -0.0205 ± 0.021 | 0.003 ± 0.02 | 0.006 ± 0.0028 | 0.007 ± 0.0028 | -0.003 ± 0.0085 | -0.021 ± 0.0014 | -0.0335 ± 0.00071 | -0.064 ± 0.011
MyoF:Collagen IV | 0.0085 ± 0.018 | 0.038 ± 0.0028 | 0.57 ± 0.013 | 0.0045 ± 0.018 | 0.01 ± 0.0028 | 0.0045 ± 0.018 | 0 ± 0.0057 | -0.0095 ± 0.012 | 0.0285 ± 0.05 | -0.0105 ± 0.025 | -0.0185 ± 0.023 | 0.0035 ± 0.00071 | 0.0175 ± 0.0021 | 0.0075 ± 0.0078 | 0.0325 ± 0.04 | -0.0215 ± 0.029 | -0.055 ± 0.025 | -0.0345 ± 0.028
